Laboratory results: patent publication US20080131384A1, “External Preparation for Skin Whitening, Whitening Agent, Whitening Method and Method of Production of External Preparation for Skin Whitening” (Shiseido Company, Ltd., priority 2004, published 2008)

System: Mouse B16 melanoma cells
Assay: Visual determination of melanin amount and number of cells in cultured B16 melanoma cells
Assay type: cell-based
Set-up: key: Good: whiter in comparison with the reference, and determined that the amount of melanin was small; Fair: slightly whiter in comparison with the reference, and determined that the amount of melanin was slightly small; Poor: equally white in comparison with the reference, and determined that the amount of melanin was almost the same
Conditions: 3 days incubation
Protocol: Mouse B16 melanoma cells were used. These were cultured in Eagle's MEM containing 10% FBS and theophylline (0.09 mg/ml) in a CO2 incubator (95% air, 5% carbon dioxide) at 37° C. After 24 hours of culture, the sample solution was added to give a final concentration of 2×10^−3 to 2×10^−5 weight % (as dried extract concentration). After further incubation for 3 days, the amount of melanin was determined visually by the following method.
A diffuser plate was placed on the lid of a well plate, the number of cells and the amount of melanin in the cells were observed by an inverted microscope and compared with a reference sample to which no plant extracts were added. The results are shown in Table I. Further, as a positive control, a similar examination as the above was performed for arbutin, which is already known to have an action suppressing melanin production.
Judgment Criteria • Good: whiter in comparison with the reference, and determined that the amount of melanin was small. • Fair: slightly whiter in comparison with the reference, and determined that the amount of melanin was slightly small. • Poor: equally white in comparison with the reference, and determined that the amount of melanin was almost the same.

`OC[C@H]1O[C@@H](Oc2ccc(O)cc2)[C@H](O)[C@@H](O)[C@@H]1O` [Arbutin, arbutin] was tested, and the “Visual Evaluation of Melanin Production” value (sample concentration 0.001 mass %) was “Fair” and the “Visual Evaluation of Melanin Production” value (sample concentration 0.002 mass %) was “Good”.
